For 16 compounds, IC50 results are on record in patent US20230151003A1, “COMPOUNDS AND METHODS OF USE” (Exelixis, Inc., priority 2020, published 2023).

One assay addresses T1, AXL (Homo sapiens, UniProt P30530).
T1 construct: endogenous in cells; host or cells: A-172 glioblastoma cells (ATCC #CRL-1620)
T1 sequence (P30530 26-894): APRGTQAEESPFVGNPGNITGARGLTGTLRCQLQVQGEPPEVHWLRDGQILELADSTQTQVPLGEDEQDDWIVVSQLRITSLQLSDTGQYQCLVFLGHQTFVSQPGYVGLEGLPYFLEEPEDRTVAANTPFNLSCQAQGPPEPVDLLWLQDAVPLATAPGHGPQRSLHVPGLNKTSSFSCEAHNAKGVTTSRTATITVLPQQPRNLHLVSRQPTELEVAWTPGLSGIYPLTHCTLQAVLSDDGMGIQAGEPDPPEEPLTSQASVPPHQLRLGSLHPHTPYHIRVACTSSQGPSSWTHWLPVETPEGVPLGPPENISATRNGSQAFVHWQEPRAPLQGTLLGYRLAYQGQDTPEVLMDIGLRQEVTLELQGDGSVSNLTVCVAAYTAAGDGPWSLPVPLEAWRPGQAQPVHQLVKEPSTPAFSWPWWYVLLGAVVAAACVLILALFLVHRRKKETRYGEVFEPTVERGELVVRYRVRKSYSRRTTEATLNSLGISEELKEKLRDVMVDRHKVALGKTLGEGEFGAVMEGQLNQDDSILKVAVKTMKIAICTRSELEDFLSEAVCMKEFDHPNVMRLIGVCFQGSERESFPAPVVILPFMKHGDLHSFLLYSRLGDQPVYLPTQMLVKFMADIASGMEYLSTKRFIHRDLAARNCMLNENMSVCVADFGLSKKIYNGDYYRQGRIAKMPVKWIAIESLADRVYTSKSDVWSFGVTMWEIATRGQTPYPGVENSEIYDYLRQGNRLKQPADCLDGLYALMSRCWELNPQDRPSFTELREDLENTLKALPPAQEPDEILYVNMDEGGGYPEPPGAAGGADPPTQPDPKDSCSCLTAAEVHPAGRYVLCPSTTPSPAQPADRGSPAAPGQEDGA
The assay can be described thus: AXL autophosphorylation ELISA in A-172 cells. The note with it: Table 3 Cellular Activities, Gas6-stimulated, phospho-AXL ELISA. It is filed as cell-based. In short, it runs like this:
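Phospho-AXL in lysates measured by ELISA after Gas6 stimulation (1 μg/mL, 15 min) of A-172 cells pre-incubated 1 h with an 8-point compound dilution series in 0.3% DMSO after 24 h serum starvation. IC50 by 4-parameter logistic fit, with DMSO-treated and reference-inhibitor wells as 100% and 0% activity.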

For a further assay, the target named is Met (Homo sapiens, UniProt P08581). The assay can be described thus: Met autophosphorylation ELISA in PC-3 cells. It is filed as cell-based. Also on record: endogenous in cells; host or cells: PC-3 prostate cancer cells (ATCC #CRL-1435). Particulars: Table 3 Cellular Activities, HGF-stimulated, phospho-Met ELISA, read-out: c-Met IC50. In short, it runs like this: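 IC50 derived by 4-parameter logistic regression of phospho-Met (panTyr) sandwich ELISA signal, scaled between HGF-stimulated DMSO and reference-inhibitor lysates. PC-3 cells, serum-starved 3 h, received an 8-point compound series (0.3% DMSO) for 1 h before 10 min stimulation with 100 ng/mL human HGF.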
Background: In an ELISA, binding on a coated surface is turned into a signal by an enzyme label.

Met, sequence (P08581 25-1390): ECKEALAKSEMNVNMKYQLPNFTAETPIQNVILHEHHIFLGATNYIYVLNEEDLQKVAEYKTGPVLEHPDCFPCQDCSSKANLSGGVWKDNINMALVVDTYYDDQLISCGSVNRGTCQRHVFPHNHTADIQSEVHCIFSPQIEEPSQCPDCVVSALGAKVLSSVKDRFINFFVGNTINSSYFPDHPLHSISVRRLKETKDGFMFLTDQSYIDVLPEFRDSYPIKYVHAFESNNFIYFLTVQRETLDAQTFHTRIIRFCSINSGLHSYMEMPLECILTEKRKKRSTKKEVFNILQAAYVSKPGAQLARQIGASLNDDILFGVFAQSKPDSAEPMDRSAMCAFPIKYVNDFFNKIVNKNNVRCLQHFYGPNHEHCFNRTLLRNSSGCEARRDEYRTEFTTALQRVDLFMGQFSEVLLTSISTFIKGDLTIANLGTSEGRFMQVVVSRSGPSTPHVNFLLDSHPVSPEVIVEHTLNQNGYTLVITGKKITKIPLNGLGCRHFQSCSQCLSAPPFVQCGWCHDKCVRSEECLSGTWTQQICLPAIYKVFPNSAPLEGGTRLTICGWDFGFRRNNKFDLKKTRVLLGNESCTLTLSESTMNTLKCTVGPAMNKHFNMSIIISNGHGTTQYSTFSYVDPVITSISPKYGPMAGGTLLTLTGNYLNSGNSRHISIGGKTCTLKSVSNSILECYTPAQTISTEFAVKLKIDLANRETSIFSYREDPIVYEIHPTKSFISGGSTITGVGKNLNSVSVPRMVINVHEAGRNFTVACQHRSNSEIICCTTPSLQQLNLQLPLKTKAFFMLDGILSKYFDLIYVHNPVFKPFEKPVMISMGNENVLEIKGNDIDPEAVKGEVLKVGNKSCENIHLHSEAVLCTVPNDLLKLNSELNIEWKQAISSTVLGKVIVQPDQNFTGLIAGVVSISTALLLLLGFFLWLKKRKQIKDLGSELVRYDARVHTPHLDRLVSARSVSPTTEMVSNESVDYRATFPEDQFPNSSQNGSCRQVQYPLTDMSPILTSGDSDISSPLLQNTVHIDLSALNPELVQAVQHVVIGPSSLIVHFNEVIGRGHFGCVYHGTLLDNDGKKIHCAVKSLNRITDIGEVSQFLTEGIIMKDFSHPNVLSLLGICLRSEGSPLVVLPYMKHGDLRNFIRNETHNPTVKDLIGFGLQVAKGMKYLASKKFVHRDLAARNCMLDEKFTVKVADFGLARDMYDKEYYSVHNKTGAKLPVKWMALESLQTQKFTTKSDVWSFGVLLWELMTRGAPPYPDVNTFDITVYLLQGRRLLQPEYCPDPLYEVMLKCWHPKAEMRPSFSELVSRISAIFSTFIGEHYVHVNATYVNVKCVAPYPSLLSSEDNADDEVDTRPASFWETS

In the case of `COCc1nc(C)c(-c2ccccn2)c(O)c1C(=O)Nc1ccc(Oc2ccnc3cc(OC)c(OC)nc23)c(F)c1` [Compound 195, N-[4-[(6,7-Dimethoxy-1,5-naphthyridin-4-yl)oxy]-3-fluorophenyl]-4-hydroxy-2-(methoxymethyl)-6-methyl-5-pyridin-2-ylpyridine-3-carboxamide], the IC50 against AXL and on Met was no more than 100 nM in each case.
Regarding `COc1cc2nccc(Oc3ccc(NC(=O)c4cnc(C)c(-c5ccnn5C)c4O)cc3F)c2nc1OC` [Compound 104], the IC50 on AXL and on Met was no more than 100 nM in each case.
`COc1cnc2c(Oc3ccc(NC(=O)c4cnc(C)c(-c5ccc(C)s5)c4O)cc3F)ccnc2c1` [Compound 101, N-[3-Fluoro-4-[(7-methoxy-1,5-naphthyridin-4-yl)oxy]phenyl]-4-hydroxy-6-methyl-5-(5-methyl-2-thienyl) pyridine-3-carboxamide]: the IC50 against AXL and on Met was no more than 100 nM throughout.
As to `COc1nc2c(Oc3ccc(NC(=O)c4c(C)n(C)c(C)c(-c5ccco5)c4=O)cc3F)ccnc2cc1OCCC1CCC1` [Compound 337, N-[4-[[7-(2-Cyclobutylethoxy)-6-methoxy-1,5-naphthyridin-4-yl]oxy]-3-fluorophenyl]-5-(furan-2-yl)-1,2,6-trimethyl-4-oxopyridine-3-carboxamide], the IC50 on AXL and at Met was no more than 100 nM each time.
Turning to `COc1cc2nccc(Oc3ccc(NC(=O)c4cnc(C)c(-c5sccc5C)c4O)cc3F)c2nc1OC` [Compound 103, N-[4-[(6,7-Dimethoxy-1,5-naphthyridin-4-yl)oxy]-3-fluoro-phenyl]-4-hydroxy-6-methyl-5-(3-methyl-2-thienyl) pyridine-3-carboxamide], the IC50 against AXL and on Met was no more than 100 nM in each case.
For `COc1cc2nccc(Oc3ccc(NC(=O)c4c(C)nc(C)c(-c5ccc(C)o5)c4O)cc3F)c2nc1OC` [Compound 110, N-[4-[(6,7-Dimethoxy-1,5-naphthyridin-4-yl)oxy]-3-fluoro-phenyl]-4-hydroxy-2,6-dimethyl-5-(5-methyl-2-furyl)pyridine-3-carboxamide], the IC50 against AXL and on Met was no more than 100 nM each time.
In the case of `COc1cc2nccc(Oc3ccc(NC(=O)c4cn(CCF)c(C)c(-c5ccsc5)c4=O)cc3F)c2nc1OC` [Compound 332, N-[4-[(6,7-Dimethoxy-1,5-naphthyridin-4-yl)oxy]-3-fluorophenyl]-1-(2-fluoroethyl)-6-methyl-4-oxo-5-thiophen-3-ylpyridine-3-carboxamide], the IC50 at AXL and on Met was no more than 100 nM in each case.
In the case of `COc1cc2nccc(Oc3ccc(NC(=O)c4cnc(C)c(-c5ccc(C(C)C)o5)c4O)cc3F)c2nc1OC` [Compound 154, N-[4-[(6,7-Dimethoxy-1,5-naphthyridin-4-yl)oxy]-3-fluorophenyl]-4-hydroxy-6-methyl-5-(5-propan-2-ylfuran-2-yl)pyridine-3-carboxamide], the IC50 at AXL and at Met was no more than 100 nM each time.
Consider `COc1cc2nccc(Oc3ccc(NC(=O)c4c(C)nc(C)c(-c5cccs5)c4O)cc3F)c2nc1OC` [Compound 107], for which the IC50 on AXL and on Met was no more than 100 nM throughout.
Turning to `COc1cc2nccc(Oc3ccc(NC(=O)c4c(C)nc(C)c(-c5ccsc5)c4O)cc3F)c2nc1OC` [Compound 106], the IC50 at AXL and at Met was no more than 100 nM in each case.
Take `COc1cc2nccc(Oc3ccc(NC(=O)c4c(C)ncc(-c5ccco5)c4O)cc3F)c2nc1OC` [Compound 119, N-[4-[(6,7-Dimethoxy-1,5-naphthyridin-4-yl)oxy]-3-fluorophenyl]-5-(furan-2-yl)-4-hydroxy-2-methylpyridine-3-carboxamide]: the IC50 at AXL and on Met was no more than 100 nM in each case.
With `COc1cnc2c(Oc3ccc(NC(=O)c4cnc(C)c(-c5cc(C)cs5)c4O)cc3F)ccnc2c1` [Compound 102, N-[3-Fluoro-4-[(7-methoxy-1,5-naphthyridin-4-yl)oxy]phenyl]-4-hydroxy-6-methyl-5-(4-methyl-2-thienyl) pyridine-3-carboxamide], the IC50 on AXL and on Met was no more than 100 nM throughout.
As to `COc1cnc2c(Oc3ccc(NC(=O)c4cn(CCF)c(C)c(-c5ccoc5)c4=O)cc3F)ccnc2c1` [Compound 334, 1-(2-Fluoroethyl)-N-[3-fluoro-4-[(7-methoxy-1,5-naphthyridin-4-yl)oxy]phenyl]-5-(furan-3-yl)-6-methyl-4-oxopyridine-3-carboxamide], the half-maximal inhibitory concentration (IC50) at AXL and on Met was no more than 100 nM throughout.
Consider `COc1cnc2c(Oc3ccc(NC(=O)c4cnc(C)c(-c5ccco5)c4O)cc3)ccnc2c1` [Compound 129, 5-(Furan-2-yl)-4-hydroxy-N-[4-[(7-methoxy-1,5-naphthyridin-4-yl)oxy]phenyl]-6-methylpyridine-3-carboxamide], for which the IC50 against AXL and on Met was no more than 100 nM throughout.
With `COc1cc2nccc(Oc3ccc(NC(=O)c4c(C)nc(C)c(-c5ccnn5C)c4O)cc3F)c2nc1OC` [Compound 108, N-[4-[(6,7-Dimethoxy-1,5-naphthyridin-4-yl)oxy]-3-fluoro-phenyl]-4-hydroxy-2,6-dimethyl-5-(2-methylpyrazol-3-yl) pyridine-3-carboxamide], the IC50 at AXL and on Met was no more than 100 nM each time.
As to `COc1cc2nccc(Oc3ccc(NC(=O)c4cnc(C)c(-c5ccco5)c4O)cc3F)c2nc1OC` [Compound 89, N-[4-[(6,7-Dimethoxy-1,5-naphthyridin-4-yl)oxy]-3-fluorophenyl]-5-(furan-2-yl)-4-hydroxy-6-methylpyridine-3-carboxamide], the IC50 against AXL and at Met was no more than 100 nM in each case.
